Reference: the NIST ThermoML archive (doi:10.1016/j.jct.2017.05.028)

Experiment: wn = mass fraction of the nth substance listed
Details: 101 kPa, Liquid, digital holographic interferometry

Row | SMILES | binary diffusion coefficient (288.15 K, w1 = 0.05) [m2/s] | binary diffusion coefficient (288.15 K, w1 = 0.15) [m2/s] | binary diffusion coefficient (288.15 K, w1 = 0.25) [m2/s] | binary diffusion coefficient (288.15 K, w1 = 0.35) [m2/s] | binary diffusion coefficient (288.15 K, w1 = 0.45) [m2/s] | binary diffusion coefficient (288.15 K, w1 = 0.55) [m2/s] | binary diffusion coefficient (288.15 K, w1 = 0.65) [m2/s] | binary diffusion coefficient (288.15 K, w1 = 0.75) [m2/s] | binary diffusion coefficient (288.15 K, w1 = 0.85) [m2/s] | binary diffusion coefficient (288.15 K, w1 = 0.95) [m2/s] | binary diffusion coefficient (298.15 K, w1 = 0.05) [m2/s] | binary diffusion coefficient (298.15 K, w1 = 0.15) [m2/s] | binary diffusion coefficient (298.15 K, w1 = 0.25) [m2/s] | binary diffusion coefficient (298.15 K, w1 = 0.35) [m2/s] | binary diffusion coefficient (298.15 K, w1 = 0.45) [m2/s] | binary diffusion coefficient (298.15 K, w1 = 0.55) [m2/s] | binary diffusion coefficient (298.15 K, w1 = 0.65) [m2/s] | binary diffusion coefficient (298.15 K, w1 = 0.75) [m2/s] | binary diffusion coefficient (298.15 K, w1 = 0.85) [m2/s] | binary diffusion coefficient (298.15 K, w1 = 0.95) [m2/s] | also measured
1 | CCCCO [butan-1-ol] + CCCCCCC | 1.86e-09 | 1.39e-09 | 1.04e-09 | 8.03e-10 | 6.87e-10 | 6.25e-10 | 6.28e-10 | 6.75e-10 | 7.03e-10 | 7.54e-10 | 2.09e-09 | 1.63e-09 | 1.26e-09 | 1.06e-09 | 9.24e-10 | 8.84e-10 | 8.71e-10 | 9.06e-10 | 9.54e-10 | 1.01e-09 | binary diffusion coefficient (308.15 K, w1 = 0.05): 2.4e-09 m2/s; binary diffusion coefficient (308.15 K, w1 = 0.15): 1.92e-09 m2/s; binary diffusion coefficient (308.15 K, w1 = 0.25): 1.57e-09 m2/s; binary diffusion coefficient (308.15 K, w1 = 0.35): 1.33e-09 m2/s; binary diffusion coefficient (308.15 K, w1 = 0.45): 1.19e-09 m2/s; binary diffusion coefficient (308.15 K, w1 = 0.55): 1.13e-09 m2/s; binary diffusion coefficient (308.15 K, w1 = 0.65): 1.11e-09 m2/s; binary diffusion coefficient (308.15 K, w1 = 0.75): 1.13e-09 m2/s; binary diffusion coefficient (308.15 K, w1 = 0.85): 1.2e-09 m2/s; binary diffusion coefficient (308.15 K, w1 = 0.95): 1.26e-09 m2/s; binary diffusion coefficient (318.15 K, w1 = 0.05): 2.73e-09 m2/s; binary diffusion coefficient (318.15 K, w1 = 0.15): 2.24e-09 m2/s; binary diffusion coefficient (318.15 K, w1 = 0.25): 1.87e-09 m2/s; binary diffusion coefficient (318.15 K, w1 = 0.35): 1.6e-09 m2/s; binary diffusion coefficient (318.15 K, w1 = 0.45): 1.49e-09 m2/s; binary diffusion coefficient (318.15 K, w1 = 0.55): 1.42e-09 m2/s; binary diffusion coefficient (318.15 K, w1 = 0.65): 1.4e-09 m2/s; binary diffusion coefficient (318.15 K, w1 = 0.75): 1.44e-09 m2/s; binary diffusion coefficient (318.15 K, w1 = 0.85): 1.48e-09 m2/s; binary diffusion coefficient (318.15 K, w1 = 0.95): 1.54e-09 m2/s
2 | CCCCCO [pentan-1-ol] + CCCCCCC | 1.65e-09 | 1.19e-09 | 8.88e-10 | 7.12e-10 | 5.95e-10 | 5.43e-10 | 5.49e-10 | 5.77e-10 | 6.09e-10 | 6.5e-10 | 1.88e-09 | 1.43e-09 | 1.13e-09 | 9.36e-10 | 8.38e-10 | 7.8e-10 | 7.86e-10 | 8.09e-10 | 8.4e-10 | 8.76e-10 | binary diffusion coefficient (308.15 K, w1 = 0.05): 2.11e-09 m2/s; binary diffusion coefficient (308.15 K, w1 = 0.15): 1.69e-09 m2/s; binary diffusion coefficient (308.15 K, w1 = 0.25): 1.38e-09 m2/s; binary diffusion coefficient (308.15 K, w1 = 0.35): 1.18e-09 m2/s; binary diffusion coefficient (308.15 K, w1 = 0.45): 1.07e-09 m2/s; binary diffusion coefficient (308.15 K, w1 = 0.55): 1.02e-09 m2/s; binary diffusion coefficient (308.15 K, w1 = 0.65): 9.99e-10 m2/s; binary diffusion coefficient (308.15 K, w1 = 0.75): 1.04e-09 m2/s; binary diffusion coefficient (308.15 K, w1 = 0.85): 1.07e-09 m2/s; binary diffusion coefficient (308.15 K, w1 = 0.95): 1.12e-09 m2/s; binary diffusion coefficient (318.15 K, w1 = 0.05): 2.42e-09 m2/s; binary diffusion coefficient (318.15 K, w1 = 0.15): 1.96e-09 m2/s; binary diffusion coefficient (318.15 K, w1 = 0.25): 1.64e-09 m2/s; binary diffusion coefficient (318.15 K, w1 = 0.35): 1.42e-09 m2/s; binary diffusion coefficient (318.15 K, w1 = 0.45): 1.33e-09 m2/s; binary diffusion coefficient (318.15 K, w1 = 0.55): 1.29e-09 m2/s; binary diffusion coefficient (318.15 K, w1 = 0.65): 1.28e-09 m2/s; binary diffusion coefficient (318.15 K, w1 = 0.75): 1.31e-09 m2/s; binary diffusion coefficient (318.15 K, w1 = 0.85): 1.36e-09 m2/s; binary diffusion coefficient (318.15 K, w1 = 0.95): 1.38e-09 m2/s
